Calls of active or inactive are those of the source.
Assays:
[1] = target: Protein Wnt-3a (Mus musculus, UniProt P27467); test: Wnt3a-driven reporter signaling inhibition, dose response, selectivity assay for Gli-SUFU antagonist project, Wnt-LIGHT cells, luminescence (AID 651570); assay type: functional; conditions: read-out: IC50_Mean;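 note: Wnt-LIGHT reporter cells stimulated with conditioned medium from Wnt3a-producing cells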
[2] = target: Phospholipase A2 (Homo sapiens, UniProt P04054); assay type: functional;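 note: confirmatory dose-response counterscreen on phospholipase A2, testing hits that came from an ultra-high-throughput screen for ATG4B inhibitors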
[3] = target: T1, Cysteine protease ATG4B (Homo sapiens, UniProt Q9Y4P1); assay type: functional;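 note: Fluorescence-based dose-response confirmation assay measuring inhibition of ATG4B activity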
T1 sequence (Q9Y4P1 whole entry): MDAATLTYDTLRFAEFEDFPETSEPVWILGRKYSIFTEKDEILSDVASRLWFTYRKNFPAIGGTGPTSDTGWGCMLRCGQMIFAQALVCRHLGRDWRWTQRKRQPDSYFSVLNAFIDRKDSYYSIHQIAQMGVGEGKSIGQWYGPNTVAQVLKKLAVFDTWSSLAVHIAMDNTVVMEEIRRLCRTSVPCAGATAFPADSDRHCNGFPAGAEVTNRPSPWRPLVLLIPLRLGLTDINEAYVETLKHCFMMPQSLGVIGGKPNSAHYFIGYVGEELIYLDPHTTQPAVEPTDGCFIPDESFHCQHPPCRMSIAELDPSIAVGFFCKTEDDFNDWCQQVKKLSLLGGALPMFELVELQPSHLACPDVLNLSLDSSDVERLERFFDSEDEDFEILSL

[4] = target: Nuclear receptor subfamily 5 group A member 2 (Homo sapiens, UniProt O00482); assay type: functional, cell-based;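 note: HEK293T cells transfected with LRH-1 and a StAR promoter luciferase reporter; potency for inhibitors that lower LRH-1 driven reporter light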
[5] = StAR promoter reporter inhibition counter-screen, dose response, counter-screen for LRH-1 inverse agonist project, cell-based, luminescence, luciferase reporter (AID 651969); assay type: functional
[6] = target: Steroidogenic factor 1 (Homo sapiens, UniProt Q13285); test: Counterscreen for inverse agonists of the liver receptor homolog-1 (LRH-1; NR5A2): Luminescence-based cell-based high throughput dose response assay to identify inverse agonists of the Steroidogenic Factor 1 Nuclear Receptor (SF1; NR5A1).; assay type: functional
[7] = target: T2, Sentrin-specific protease 6 (Homo sapiens, UniProt Q9GZR1); assay type: functional;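 note: Luminescence-based dose-response confirmatory assay of SENP6 inhibition, following up an ultra-high-throughput screen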
T2 sequence (Q9GZR1 whole entry): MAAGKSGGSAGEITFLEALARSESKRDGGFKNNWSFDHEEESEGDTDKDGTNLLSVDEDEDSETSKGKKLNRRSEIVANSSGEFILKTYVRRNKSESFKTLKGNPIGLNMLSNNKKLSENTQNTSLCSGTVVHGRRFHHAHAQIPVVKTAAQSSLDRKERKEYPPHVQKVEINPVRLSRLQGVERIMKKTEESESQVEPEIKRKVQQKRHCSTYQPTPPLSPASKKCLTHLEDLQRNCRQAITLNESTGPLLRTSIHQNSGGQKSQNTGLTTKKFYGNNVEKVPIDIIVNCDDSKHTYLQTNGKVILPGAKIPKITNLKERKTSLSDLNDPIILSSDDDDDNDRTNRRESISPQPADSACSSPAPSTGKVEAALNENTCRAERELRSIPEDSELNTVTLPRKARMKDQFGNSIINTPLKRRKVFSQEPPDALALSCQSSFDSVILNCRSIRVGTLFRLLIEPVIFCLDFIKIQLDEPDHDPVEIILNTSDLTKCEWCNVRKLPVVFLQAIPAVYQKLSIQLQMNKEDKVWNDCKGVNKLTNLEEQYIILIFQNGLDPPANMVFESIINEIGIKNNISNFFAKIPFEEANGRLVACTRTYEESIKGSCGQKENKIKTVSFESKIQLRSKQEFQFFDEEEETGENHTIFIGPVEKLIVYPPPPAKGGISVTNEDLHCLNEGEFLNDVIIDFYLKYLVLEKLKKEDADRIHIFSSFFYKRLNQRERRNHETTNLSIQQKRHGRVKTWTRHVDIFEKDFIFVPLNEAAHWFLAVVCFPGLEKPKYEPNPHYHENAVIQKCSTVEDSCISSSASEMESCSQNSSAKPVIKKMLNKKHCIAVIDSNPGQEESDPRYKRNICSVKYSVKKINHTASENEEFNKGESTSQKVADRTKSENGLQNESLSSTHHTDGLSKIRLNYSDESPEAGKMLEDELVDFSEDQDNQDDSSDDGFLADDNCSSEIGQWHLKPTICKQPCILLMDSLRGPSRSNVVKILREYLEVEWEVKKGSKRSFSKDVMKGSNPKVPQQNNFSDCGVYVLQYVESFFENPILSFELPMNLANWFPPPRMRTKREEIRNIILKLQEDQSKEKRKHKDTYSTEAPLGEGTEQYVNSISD

[8] = target: T3, Sentrin-specific protease 7 (Homo sapiens, UniProt Q9BQF6); assay type: functional;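 note: Luminescence-based dose-response confirmation of ultra-high-throughput screening hits, measuring inhibition of SENP7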
T3 sequence (Q9BQF6 whole entry): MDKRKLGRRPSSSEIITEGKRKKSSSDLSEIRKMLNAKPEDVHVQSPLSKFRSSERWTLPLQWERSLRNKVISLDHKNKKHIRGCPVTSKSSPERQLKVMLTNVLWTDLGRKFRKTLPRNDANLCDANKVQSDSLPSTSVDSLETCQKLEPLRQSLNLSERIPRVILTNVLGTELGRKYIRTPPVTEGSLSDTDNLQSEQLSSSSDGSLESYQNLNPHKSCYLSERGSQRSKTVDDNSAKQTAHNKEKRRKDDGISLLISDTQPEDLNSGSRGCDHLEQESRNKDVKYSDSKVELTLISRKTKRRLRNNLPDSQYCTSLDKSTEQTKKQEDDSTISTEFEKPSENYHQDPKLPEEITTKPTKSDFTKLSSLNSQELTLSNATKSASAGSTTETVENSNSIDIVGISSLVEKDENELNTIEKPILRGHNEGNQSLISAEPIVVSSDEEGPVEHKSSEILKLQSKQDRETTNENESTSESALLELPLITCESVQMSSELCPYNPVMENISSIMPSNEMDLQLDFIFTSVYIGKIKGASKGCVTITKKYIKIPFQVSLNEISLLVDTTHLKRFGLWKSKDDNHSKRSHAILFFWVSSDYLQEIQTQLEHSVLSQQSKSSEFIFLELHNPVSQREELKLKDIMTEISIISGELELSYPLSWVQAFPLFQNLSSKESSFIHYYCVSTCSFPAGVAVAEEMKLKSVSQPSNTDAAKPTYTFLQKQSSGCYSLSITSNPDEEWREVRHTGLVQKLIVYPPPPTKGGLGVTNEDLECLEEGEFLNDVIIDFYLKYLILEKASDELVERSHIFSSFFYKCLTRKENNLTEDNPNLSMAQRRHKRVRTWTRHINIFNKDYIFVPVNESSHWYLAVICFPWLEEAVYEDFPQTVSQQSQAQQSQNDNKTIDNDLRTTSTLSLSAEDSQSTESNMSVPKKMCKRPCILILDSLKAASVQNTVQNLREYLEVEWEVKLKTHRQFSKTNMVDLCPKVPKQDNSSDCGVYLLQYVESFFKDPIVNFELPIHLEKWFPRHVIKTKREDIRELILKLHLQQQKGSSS

[9] = target: T4, Sentrin-specific protease 8 (Homo sapiens, UniProt Q96LD8); assay type: functional;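 note: luminescence read-out of SENP8 inhibition, dose-response confirmation following an ultra-high-throughput screen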
T4 sequence (Q96LD8 whole entry): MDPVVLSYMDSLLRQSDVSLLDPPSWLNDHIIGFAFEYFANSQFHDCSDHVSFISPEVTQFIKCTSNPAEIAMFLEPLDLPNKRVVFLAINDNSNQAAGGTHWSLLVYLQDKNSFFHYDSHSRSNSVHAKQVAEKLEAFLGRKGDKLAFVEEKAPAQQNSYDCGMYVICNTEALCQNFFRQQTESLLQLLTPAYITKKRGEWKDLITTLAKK

[10] = target: T5, Caspase-3 (Homo sapiens, UniProt P42574); assay type: functional;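 note: Dose-response selectivity test against caspase-3 for candidate inhibitors of sentrin-specific proteases (SENPs)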
T5 sequence (P42574 whole entry): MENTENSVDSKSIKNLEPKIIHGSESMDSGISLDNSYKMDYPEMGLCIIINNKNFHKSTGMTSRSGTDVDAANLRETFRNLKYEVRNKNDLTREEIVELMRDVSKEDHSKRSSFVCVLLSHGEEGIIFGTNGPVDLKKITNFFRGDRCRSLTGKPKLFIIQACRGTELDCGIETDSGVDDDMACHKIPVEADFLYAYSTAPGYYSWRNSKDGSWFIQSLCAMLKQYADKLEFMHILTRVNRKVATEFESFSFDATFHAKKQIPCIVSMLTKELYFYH

[11] = target: T6, Sentrin-specific protease 1 (Homo sapiens, UniProt Q9P0U3); test: Dose response confirmation of small molecule inhibitors of the catalytic domain of the SUMO protease, SENP1 in a FRET assay.; assay type: functional; conditions: read-out: IC50_Mean
T6 sequence (Q9P0U3 whole entry): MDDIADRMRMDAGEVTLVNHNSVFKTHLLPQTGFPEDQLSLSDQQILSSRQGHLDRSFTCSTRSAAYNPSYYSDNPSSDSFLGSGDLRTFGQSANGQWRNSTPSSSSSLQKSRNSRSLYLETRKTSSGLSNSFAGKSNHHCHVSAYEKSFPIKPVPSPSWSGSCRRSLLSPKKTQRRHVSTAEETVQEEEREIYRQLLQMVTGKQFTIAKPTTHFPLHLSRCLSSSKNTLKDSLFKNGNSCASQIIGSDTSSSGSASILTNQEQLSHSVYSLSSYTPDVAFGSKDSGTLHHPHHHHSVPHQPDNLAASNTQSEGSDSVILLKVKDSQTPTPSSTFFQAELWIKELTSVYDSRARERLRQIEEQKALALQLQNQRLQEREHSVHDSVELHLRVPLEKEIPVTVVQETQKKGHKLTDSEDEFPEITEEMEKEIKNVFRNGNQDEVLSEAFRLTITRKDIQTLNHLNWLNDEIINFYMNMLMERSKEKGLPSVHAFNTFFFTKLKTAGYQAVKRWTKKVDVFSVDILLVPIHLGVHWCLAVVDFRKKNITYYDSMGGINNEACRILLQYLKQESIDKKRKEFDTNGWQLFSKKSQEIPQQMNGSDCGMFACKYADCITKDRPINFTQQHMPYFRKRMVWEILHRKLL

[12] = target: T6, Sentrin-specific protease 1; test: potency of human SENP1 inhibitors, dose response, biochemical, kinetic FRET (AID 651697); assay type: functional; conditions: read-out: IC50_Mean

Sequence of Protein Wnt-3a (P27467 whole entry): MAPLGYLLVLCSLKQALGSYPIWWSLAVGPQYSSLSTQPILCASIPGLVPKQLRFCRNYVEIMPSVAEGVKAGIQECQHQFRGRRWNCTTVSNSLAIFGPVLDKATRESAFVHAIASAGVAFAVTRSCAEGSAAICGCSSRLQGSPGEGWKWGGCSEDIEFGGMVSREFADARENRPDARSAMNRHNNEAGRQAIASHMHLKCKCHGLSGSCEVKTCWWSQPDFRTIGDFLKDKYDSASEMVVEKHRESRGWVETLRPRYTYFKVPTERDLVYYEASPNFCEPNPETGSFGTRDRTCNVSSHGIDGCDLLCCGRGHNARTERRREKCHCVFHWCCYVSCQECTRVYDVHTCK
Sequence of Nuclear receptor subfamily 5 group A member 2 (O00482 whole entry): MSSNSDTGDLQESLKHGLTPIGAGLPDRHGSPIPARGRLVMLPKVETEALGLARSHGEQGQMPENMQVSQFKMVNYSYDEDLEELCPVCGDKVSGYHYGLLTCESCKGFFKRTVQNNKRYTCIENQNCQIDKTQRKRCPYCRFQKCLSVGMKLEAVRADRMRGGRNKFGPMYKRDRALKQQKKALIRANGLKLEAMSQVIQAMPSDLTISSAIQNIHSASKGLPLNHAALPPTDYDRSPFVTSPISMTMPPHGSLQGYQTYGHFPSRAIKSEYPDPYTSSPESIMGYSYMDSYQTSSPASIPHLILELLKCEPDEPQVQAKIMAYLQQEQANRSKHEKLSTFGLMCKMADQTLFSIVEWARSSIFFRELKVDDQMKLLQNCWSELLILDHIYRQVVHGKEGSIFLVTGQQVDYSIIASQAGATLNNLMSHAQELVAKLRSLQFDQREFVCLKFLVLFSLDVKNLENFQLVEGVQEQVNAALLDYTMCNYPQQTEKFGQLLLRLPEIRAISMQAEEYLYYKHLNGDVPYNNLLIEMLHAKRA
Sequence of Steroidogenic factor 1 (Q13285 whole entry): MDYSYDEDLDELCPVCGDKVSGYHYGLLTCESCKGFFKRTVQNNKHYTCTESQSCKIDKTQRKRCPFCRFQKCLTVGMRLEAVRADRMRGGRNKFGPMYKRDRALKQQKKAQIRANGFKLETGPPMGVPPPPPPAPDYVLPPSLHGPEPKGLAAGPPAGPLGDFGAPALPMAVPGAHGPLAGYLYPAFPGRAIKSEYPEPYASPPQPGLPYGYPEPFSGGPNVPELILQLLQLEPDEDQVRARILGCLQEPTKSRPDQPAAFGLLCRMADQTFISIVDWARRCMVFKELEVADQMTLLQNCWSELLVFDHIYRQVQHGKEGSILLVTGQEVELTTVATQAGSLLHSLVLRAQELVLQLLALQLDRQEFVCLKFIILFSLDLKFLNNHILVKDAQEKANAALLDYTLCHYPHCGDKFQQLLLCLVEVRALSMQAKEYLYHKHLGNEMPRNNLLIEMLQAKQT
Sequence of Phospholipase A2 (P04054 whole entry): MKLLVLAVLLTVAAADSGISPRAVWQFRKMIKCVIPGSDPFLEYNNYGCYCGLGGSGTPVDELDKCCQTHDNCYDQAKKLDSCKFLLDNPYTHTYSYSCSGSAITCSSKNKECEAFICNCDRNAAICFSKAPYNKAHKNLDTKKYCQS

With O=[N+]([O-])c1ccc(N2CCN(C(=S)NCc3ccc(Cl)cc3)CC2)cc1 the IC50 [1] was 5.08 µM (active).

For CC/C=C\C/C=C\C/C=C\CCCCCCCC(=O)O [LINOLENIC ACID], the IC50 [2] was 22.3 µM (inactive) and the IC50 [3] was 15.3 µM (active).

In the case of Clc1ccc(-c2c[n+](-c3ccccc3)c3n2CCS3)cc1, the IC50 [1] is reported as 22.5 µM (inactive).

With COC(=O)c1ccc(NC(=O)CN2CCN(c3ccc(Cl)cc3)CC2)cc1 the IC50 [4] was 35.9 µM (inactive), the IC50 [5] was 35.9 µM (inactive) and the IC50 [6] was 30.7 µM (inactive).

With CCOc1ccc2nc(NC(=O)CSc3cnn[nH]3)sc2c1 the IC50 [7] was 32.8 µM (active), the IC50 [8] was 11.7 µM (active) and the IC50 [9] was 44.1 µM (active). The IC50 [10] was 16.3 µM (active).

In the case of Cc1ccc2cc3c(N)c(C(=O)N4CCOCC4)sc3nc2c1, the IC50 [11] is reported as 30.6 µM (inactive) and the IC50 [12] is reported as 35.9 µM (inactive).

— ChEMBL document CHEMBL1201862, “PubChem BioAssay data set” (2004)
